{"source": "patent US20120179089A1", "about": "“SUBSTITUTED BIPYRIDINES FOR USE IN ORGANIC LIGHT-EMITTING DEVICES” (Nitto Denko Corporation, priority 2010, published 2012)", "key": {"CHO-K1 cells": {"tested_on": "CHO-K1 cells", "experiment": "Optical microscope images of cells after red light irradiation", "format": "cell-based, Chinese Hamster", "conditions": "ALA treated CHO-K1 cells after 30 J/cm^2 red light (630 nm) irradiation; FIG. 9B"}, "[1]": {"tested_on": "CHO-K1 (Chinese Hamster Ovarian Cancer, ATCC, CRL-2243) cell line", "experiment": "Conversion of ALA to protoporphyrin IX (PpIX) in cells, fluorescence emission", "format": "cell-based", "conditions": "ALA 1 mM and 2 mM, about 16 hrs at 37° C.; fluorescence emission at 635 nm"}, "[2]": {"tested_on": "CHO-K1 (Chinese Hamster Ovarian Cancer, ATCC, CRL-2243) cell line", "experiment": "Efficacy study: ALA plus red OLED light, MTT cell viability", "format": "cell-based", "conditions": "ALA about 1 mM or higher, 16 hrs incubation, OLED light (630 nm) dose of 30 J/cm^2, FIG. 10"}, "[3]": {"experiment": "Solubility observed on isolation", "format": "physicochemical", "protocol": "6,6′-di(benzo[d]thiazol-2-yl)-3,3′-bipyridine (17). A mixture of 9 (0.591 g, 2.03 mmol), 16 (0.700 g, 2.07 mmol), tetrakis(triphenylphosphine)palladium(0) (117 mg, 102 μmol), Na2CO3 (1.59 g, 15.0 mmol), H2O (15 mL) and THF (25 mL) was degassed with argon for about 20 min while stirring. The stirring reaction mixture was then maintained under argon at about 80° C. for about 19 h. Upon completion, the mixture was cooled to RT, filtered and the precipitate collected as a white solid (0.83 g, 97%).\n2-(6′-(benzo[d]thiazol-2-yl)-3,3′-bipyridin-6-yl)benzo[d]oxazole (18). Following the procedure for 17, 11 (0.558 g, 2.03 mmol), 16 (0.700 g, 2.07 mmol),), tetrakis(triphenylphosphine)palladium(0) (117 mg, 102 μmol), Na2CO3 (1.59 g, 15.0 mmol), H2O (15 mL) and THF (25 mL) yielded an insoluble white solid (0.70 g, 84%) after filtration."}, "[4]": {"tested_on": "age-related macular degeneration", "experiment": "Phototherapy of age-related macular degeneration with red light emitting OLED", "format": "in vivo, person", "conditions": "about 6 mg/m^2 intravenously; retina illuminated about 15 minutes after start of infusion"}, "pathological myopia": {"tested_on": "pathological myopia", "experiment": "Phototherapy of pathological myopia with red light emitting OLED", "format": "in vivo, person", "conditions": "about 6 mg/m^2 intravenously; retina illuminated about 15 minutes after start of infusion"}, "[5]": {"tested_on": "presumed ocular histoplasmosis", "parameters": "species or system person", "conditions": "in vivo, iv"}}, "data": [{"smiles": "NCC(=O)CCC(=O)O", "note": "[ALA, 5-aminolevulinic acid]", "values": [{"measurement": "cell morphology / cell death by optical microscope", "setting": "CHO-K1 cells", "value": "significant cell death"}, {"measurement": "generation of PpIX", "setting": "[1]", "value": "confirmed"}, {"measurement": "cell death", "setting": "[2]", "value": "≥ 90", "unit": "%"}]}, {"smiles": "c1ccc2sc(-c3ccc(-c4ccc(-c5nc6ccccc6s5)nc4)cn3)nc2c1", "note": "[Compound 17, 6,6′-di(benzo[d]thiazol-2-yl)-3,3′-bipyridine]", "values": [{"measurement": "solubility", "setting": "[3]", "value": "insoluble in numerous common organic solvents"}]}, {"smiles": "c1ccc2oc(-c3ccc(-c4ccc(-c5nc6ccccc6s5)nc4)cn3)nc2c1", "note": "[Compound 18, 2-(6′-(benzo[d]thiazol-2-yl)-3,3′-bipyridin-6-yl)benzo[d]oxazole]", "values": [{"measurement": "solubility", "setting": "[3]", "value": "insoluble"}]}, {"smiles": "C=Cc1c(C)c2cc3nc(cc4[nH]c(cc5nc(cc1[nH]2)C(C)=C5CCC(=O)O)c(CCC(=O)OC)c4C)[C@@]1(C)C3=CC=C(C(=O)OC)[C@H]1C(=O)OC", "note": "[Verteporphin]", "values": [{"measurement": "patient's vision", "setting": "[4]", "value": "anticipated to be stabilized"}, {"measurement": "patient's vision", "setting": "pathological myopia", "value": "anticipated to be stabilized"}, {"measurement": "patient's vision", "setting": "[5]", "value": "anticipated to be stabilized"}]}]}
